Measured values: ChEMBL document CHEMBL4145635, “Applying Molecular Networking for the Detection of Natural Sources and Analogues of the Selective Gq Protein Inhibitor FR900359” (J Nat Prod, 2018)
*1 amine or outer side, *2 acyl side, *3 side chain or, on linkers, in order; H or OH if unused. Where a SMILES comes first, the peptide text is derived from it. Bridges are numbered along the chain shown (N, C = ends). [ ]: non-standard residue; d: D form. The star is where a group is joined. Leu(3R-O(AcLeu(3R-OH))) = CC(=O)N[C@H](C(=O)O[C@H](C(C)C)[C@H](N)C(=O)O)[C@H](O)C(C)C; Leu(3R-OH,Nα-propionyl) = CCC(=O)N[C@H](C(=O)*)[C@H](O)C(C)C; X1 = CC(C)[C@@H](O[*:3])[C@H](N[*:1])C(=O)[*:2]; NMeT = CN[C@H](C(=O)O)[C@@H](C)O; dPhLac = O=C(O)[C@H](O)Cc1ccccc1; NMeA = CN[C@@H](C)C(=O)O; NMeDha = C=C(NC)C(=O)O

Key:
[1] = Displacement of [3H]PSB-15900 from Gq (unknown origin) expressed in platelet cell membranes; parameters: species or system Homo sapiens
[2] = Inhibition of Gq (unknown origin) coupled with muscarinic M1 receptor expressed in CHO cells assessed as reduction in carbachol-induced IP1 accumulation pretreated for 1 hr followed by carbachol addition measured after 35 mins by HTRF assay; assay type: cell-based

| pIC50 [1] | IC50 [2] | Structure (SMILES) |
| --- | --- | --- |
| 7.79 to 8.64 | 2.29 to 16.2 nM | C=C1C(=O)N[C@@H](C)C(=O)N(C)[C@@H](C)C(=O)N[C@@H]([C@H](OC(=O)[C@@H](NC(=O)CC)[C@H](O)C(C)C)C(C)C)C(=O)N(C)[C@@H]([C@@H](C)OC)C(=O)O[C@H](C(C)C)[C@H](NC(=O)CCO)C(=O)O[C@H](Cc2ccccc2)C(=O)N1C |
| 7.79 to 8.64 | 2.29 to 16.2 nM | C=C1C(=O)N[C@@H](C)C(=O)N(C)[C@@H](C)C(=O)N[C@@H]([C@H](OC(=O)[C@@H](NC(C)=O)[C@H](O)C(C)C)C(C)C)C(=O)N(C)[C@@H]([C@@H](C)OC)C(=O)O[C@H](C(C)C)[C@H](NC(C)=O)C(=O)O[C@H](Cc2ccccc2)C(=O)N1C (Ac-[X1][dPhLac][NMeDha]A[NMeA][Leu(3R-O(AcLeu(3R-OH)))][NMeT](Me); ester 1-C) |

| Structure (SMILES) | pIC50 [1] | IC50 [2] |
| --- | --- | --- |
| C=C1C(=O)N[C@@H](C)C(=O)N(C)[C@@H](C)C(=O)N[C@@H]([C@H](OC(=O)[C@@H](NC(=O)CC)[C@H](O)C(C)C)C(C)C)C(=O)N(C)[C@@H]([C@@H](C)OC)C(=O)O[C@H](C(C)C)[C@H](NC(C)=O)C(=O)O[C@H](Cc2ccccc2)C(=O)N1C (Ac-[X1][dPhLac][NMeDha]A[NMeA][X1](Leu(3R-OH,Nα-propionyl))[NMeT](Me); ester 1-C) | 7.79 to 8.64 | 2.29 to 16.2 nM |
